From patent US20210330648A1, “Pharmaceutical composition and use thereof” (ALPHALA CO., LTD., priority 2020, published 2021)
Values after ≈ are worked out from the molar mass of the structure shown.

Experiments:
[1] = Solubility in buffers or solutions, LC-MS/MS; format: physicochemical; settings: for Solubility (mg/ml): 37° C., 24 hrs
Procedure: The method for measuring the solubilities of the formulations is briefly described. The test formulation was added into indicated buffers or solutions (ddH2O or 0.9% saline, pH 7.4) to the final concentration of 3 mg/mL, followed by sonicating for 30 mins. Next, the mixture was put into 37° C. water bath for 24 hrs. The mixture was mixed well by vortex and 1 mL of mixture was transferred into the 1.5 mL eppendorf tube, followed by centrifuging at 20817 xg for 30 mins. 10 μL of the supernatant was collected, and the concentration of the collected supernatant was determined by LC-MS/MS.

[2] = indicates poor aqueous solubility but good membrane permeability; cited from earlier work
[3] = In vitro dissolution testing, USP apparatus Type 2 (paddles); format: physicochemical; settings: pH 6.8 phosphate buffer with 0.25% SDS, 900 mL, 75 rpm, 37° C.
Procedure: In vitro dissolution testing was performed using an USP dissolution apparatus Type 2 (paddles) at 75 rpm (250 rpm at infinity) using 900 mL phosphate buffer pH 6.8 with 0.25% w/v SDS as the dissolution medium at 37 0.5° C.

[4] = Oral bioavailability / pharmacokinetics in Beagle dogs; format: in vivo; settings: dog, plasma, pH 7.4, IV bolus, 40 to 50 mg, vehicle 0.1M NaHCO3 pH7.4, read-out: AUC (area under the curve) of IV bolus
Procedure: Briefly, three healthy, research Beagle dogs, aged 4˜10 years and body weight 9˜12 kg were used. The pharmacokinetics experiments have intravenous bolus (IV bolus) and oral groups.
For the IV bolus and oral groups, the dogs received the drugs after fasting for 4 hours, and the blood samples of the dogs were taken before administration. The blood samples were collected at pre-assigned times (10 min, 1 hr, 2 hr, 4 hr, 5 hr, 7 hr and 24 hr) after administration. The concentrations of the drug in plasma were determined with validated high performance liquid chromatography.
The plasma concentration data were analyzed and modeled by the non-compartmental analysis to obtain pharmacokinetics parameters.

| Compound | Solubility (mg/ml) ([1]; H2O (pH 7.0)) | Solubility (mg/ml) ([1]; Saline (pH 7.4)) | solubility at 24 h ([1]; USP pH 6.8 buffer, aqueous buffer, thermodynamic from solid, USP pH 6.8, 37° C.) [µg/mL] | Biopharmaceutical Classification System (BCS) class [2] | In vitro dissolution ([3]; 0 min) [%] | In vitro dissolution ([3]; 5 min) [%] | In vitro dissolution ([3]; 10 min) [%] | In vitro dissolution ([3]; 15 min) [%] | In vitro dissolution ([3]; 20 min) [%] | In vitro dissolution ([3]; 30 min) [%] | In vitro dissolution ([3]; 45 min) [%] | In vitro dissolution ([3]; 60 min) [%] | In vitro dissolution ([3]; 90 min) [%] | In vitro dissolution ([3]; 120 min) [%] | AUC [4] [ng·h/mL] |
| --- | --- | --- | --- | --- | --- | --- | --- | --- | --- | --- | --- | --- | --- | --- | --- |
| CCOC(=O)CCNC(=O)c1ccc(N[C@H](c2ccc(-c3nnc(-c4ccccc4)o3)cc2)C(C)C)cc1 [ALP001E] | <LOQ | <LOQ | 0.44 (≈ 0.858 µM) | Class II | 0.00 | 4.40 | 3.69 | 4.73 | 2.87 | 1.18 | 1.26 | 2.11 | 2.77 | 13.04 | – |
| CC(C)[C@H](Nc1ccc(C(=O)NCCC(=O)O)cc1)c1ccc(-c2nnc(-c3ccccc3)o2)cc1 [ALP001] | – | – | – | – | – | – | – | – | – | – | – | – | – | – | 2180 |
